Reference: the supplement of paper PMC10307832

Key:
Assay in all cases: relative viability (nuclei count vs DMSO), 5 days (fraction); higher = more cells survive
[1] = compound: COC1=CC(c2cc3ccccc3[nH]2)=N/C1=C\c1[nH]c(C)cc1C [Obatoclax] + C[C@]1(O)C[C@@H](c2nc(-c3ccc4ccc(-c5ccccc5)nc4c3)c3c(N)nccn32)C1 [Linsitinib] (partner 1 µM)
How it was run: (§1)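 Dosing by pin tool came one day after lung cancer cell lines were seeded in 1536-well plates, using either one drug or a fixed anchor-drug dose plus five library-drug doses (not always all listed) in √10 steps. After 5 days, nuclei were counted on 4× images. Relative viability is treated-well nuclei count divided by vehicle-well nuclei count, and values are medians of duplicate plates.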

[2] = compound: CC1=CC(=NN1)NC2=CC(=NC(=N2)/C=C/C3=CC=CC=C3)N4CCN(CC4)C + CS(=O)(=O)N1CCN(Cc2cc3nc(-c4cccc5[nH]ncc45)nc(N4CCOCC4)c3s2)CC1 [Pictilisib] (partner 1 µM)
How it was run: as §1

[3] = compound: CC(C)C[C@H](NC(=O)[C@H](Cc1ccccc1)NC(=O)c1cnccn1)B(O)O [Bortezomib] + NC(=O)Nc1cc(-c2cccc(F)c2)sc1C(=O)N[C@H]1CCCNC1 [AZD7762] (partner 0.2 µM)
How it was run: as §1

[4] = compound: CC(C)C[C@H](NC(=O)[C@H](Cc1ccccc1)NC(=O)c1cnccn1)B(O)O [Bortezomib] + Cc1nc(Nc2ncc(C(=O)Nc3c(C)cccc3Cl)s2)cc(N2CCN(CCO)CC2)n1 [Dasatinib] (partner 0.075 µM)
How it was run: as §1

Row | Cell Line | relative viability ([1]; first compound 0.01 µM) | relative viability ([1]; first compound 0.03162 µM) | relative viability ([1]; first compound 0.1 µM) | relative viability ([1]; first compound 0.3162 µM) | relative viability ([1]; first compound 1 µM) | relative viability ([2]; first compound 0.08 µM) | relative viability ([2]; first compound 0.8 µM) | relative viability ([2]; first compound 2.53 µM) | relative viability ([2]; first compound 8 µM) | relative viability ([3]; first compound 0.0002 µM) | relative viability ([3]; first compound 0.000632 µM) | relative viability ([3]; first compound 0.006325 µM) | relative viability ([3]; first compound 0.02 µM) | relative viability ([4]; first compound 0.0002 µM) | relative viability ([4]; first compound 0.000632 µM) | relative viability ([4]; first compound 0.002 µM) | relative viability ([4]; first compound 0.006325 µM) | relative viability ([4]; first compound 0.02 µM) | relative viability ([2]; first compound 0.253 µM) | relative viability ([3]; first compound 0.002 µM)
1 | NCI-H1993 | 0.754 | 0.772 | 0.712 | 0.737 | 0.623 | 0.817 | 0.744 | 0.808 | 0.599 | 0.838 | 0.877 | 0.333 | 0.324 | 0.542 | 0.578 | 0.577 | 0.408 | 0.456 | – | –
2 | SK-MES-1 | 0.991 | 1.1 | 1.09 | 0.98 | 0.687 | 0.341 | 0.279 | 0.168 | 0.134 | – | – | – | – | 0.375 | 0.351 | 0.35 | 0.124 | 0.125 | 0.357 | –
3 | IA-LM | 0.457 | 0.505 | 0.5 | 0.465 | 0.0667 | 0.319 | 0.378 | 0.173 | 0.0595 | – | – | – | – | – | – | – | – | – | 0.505 | –
4 | NCI-H2170 | – | – | – | – | – | 0.283 | 0.257 | 0.166 | 0.136 | 0.804 | 0.685 | 0.54 | 0.113 | 0.546 | 0.378 | 0.502 | 0.16 | 0.144 | 0.301 | 0.943
5 | Calu-6 | 0.95 | 0.898 | 0.946 | 0.852 | 0.652 | 0.876 | 0.648 | 0.131 | 0.103 | – | – | – | – | – | – | – | – | – | 0.807 | –
6 | SK-LU-1 | 1.18 | 1.17 | 0.834 | 0.496 | 0.419 | 0.595 | 0.56 | 0.285 | 0.0825 | – | – | – | – | 0.17 | 0.202 | 0.214 | 0.0951 | 0.118 | 0.587 | –
7 | NCI-H2023 | 0.624 | 0.648 | 0.635 | 0.608 | 0.279 | 0.203 | 0.197 | 0.0664 | 0.0528 | – | – | – | – | 0.59 | 0.556 | 0.558 | 0.124 | 0.0683 | 0.266 | –
8 | NCI-H1650 | – | – | – | – | – | 0.519 | 0.549 | 0.113 | 0.0653 | – | – | – | – | 0.354 | 0.302 | 0.181 | 0.197 | 0.207 | 0.526 | –
9 | SW 1573 | 0.768 | 0.832 | 0.803 | 0.801 | 0.81 | 0.478 | 0.393 | 0.179 | 0.0655 | – | – | – | – | 0.488 | 0.867 | 0.24 | 0.0568 | 0.052 | 0.478 | –
10 | NCI-H661 | 0.598 | 0.564 | 0.66 | 0.529 | 0.735 | – | 0.346 | 0.259 | 0.205 | – | – | – | – | 0.851 | 0.836 | 0.773 | 0.331 | 0.168 | 0.408 | –
11 | NCI-H2228 | 0.536 | 1.03 | 1.12 | 0.445 | 0.448 | 0.433 | 0.468 | 0.065 | 0.0792 | – | – | – | – | 0.475 | 0.464 | 0.328 | 0.0587 | 0.0925 | 0.547 | –
12 | NCI-H1648 | – | – | – | – | – | – | – | – | – | 0.549 | 0.634 | 0.518 | 0.269 | – | – | – | – | – | – | 0.771
13 | COR-L23 | 0.848 | 1 | 0.767 | 0.29 | 0.173 | 0.73 | 0.765 | 0.177 | 0.0607 | – | – | – | – | 0.461 | 0.459 | 0.485 | 0.045 | 0.054 | 0.929 | –
14 | NCI-H1623 | – | – | – | – | – | – | – | – | – | – | – | – | – | 0.537 | 0.572 | 0.565 | 0.52 | 0.262 | – | –
15 | NCI-H1299 | 0.975 | 0.837 | 0.925 | 0.948 | 0.72 | 0.725 | 0.596 | 0.107 | 0.0675 | – | – | – | – | – | – | – | – | – | 0.853 | –
16 | NCI-H520 | 0.925 | 0.891 | 1.12 | 0.583 | 0.262 | 0.335 | 0.251 | 0.156 | 0.127 | – | – | – | – | 0.173 | 0.207 | 0.18 | 0.201 | 0.179 | 0.306 | –
17 | NCI-H522 | – | – | – | – | – | – | – | – | – | 0.794 | 0.719 | 0.384 | 0.356 | 0.875 | 0.79 | 0.965 | 0.4 | 0.393 | – | 0.715
18 | NCI-H2342 | – | – | – | – | – | – | – | – | – | 0.64 | 0.486 | 0.582 | 0.433 | 0.286 | 0.306 | 0.322 | 0.334 | 0.349 | – | 0.478
19 | SW 900 | – | – | – | – | – | – | – | – | – | 0.572 | 0.627 | 0.178 | 0.158 | 0.74 | 0.507 | 0.167 | 0.107 | 0.116 | – | 0.188
20 | NCI-H1703 | 0.613 | 0.539 | 0.407 | 0.917 | 0.589 | – | 0.179 | 0.182 | 0.131 | 0.117 | 0.102 | 0.178 | 0.137 | – | – | – | – | – | 0.24 | 0.133
21 | ChaGo-K-1 | – | – | – | – | – | 0.605 | 1 | 0.292 | 0.271 | 0.847 | 0.716 | 0.691 | 0.164 | 0.535 | 0.539 | 0.558 | 0.207 | 0.13 | 0.912 | 0.886
22 | UMC-11 | 1.04 | 0.875 | 0.981 | 0.81 | 0.885 | 0.79 | 0.606 | 0.158 | 0.108 | – | – | – | – | 0.389 | 0.491 | 0.439 | 0.278 | 0.171 | 0.813 | –
23 | COR-L 105 | 0.989 | 0.964 | 0.998 | 1.06 | 0.401 | 0.461 | 0.353 | 0.205 | 0.223 | – | – | – | – | 0.381 | 0.324 | 0.352 | 0.267 | 0.216 | 0.429 | –
24 | NCI-H2009 | 1.12 | 1.2 | 1.19 | 1.02 | 0.262 | 0.754 | 0.781 | 0.25 | 0.142 | – | – | – | – | 0.291 | 0.254 | 0.244 | 0.0687 | 0.0717 | 0.415 | –
